Test results reported in patent US20060084682A1, “Thrombopoietin mimetics” (priority 2002, published 2006).

Biological target: T1, human Tpo-R (Homo sapiens, UniProt P40238)
T1 construct: expressed in transfected cells; host or cells: murine BaF3 cell line
T1 sequence (P40238 26-635): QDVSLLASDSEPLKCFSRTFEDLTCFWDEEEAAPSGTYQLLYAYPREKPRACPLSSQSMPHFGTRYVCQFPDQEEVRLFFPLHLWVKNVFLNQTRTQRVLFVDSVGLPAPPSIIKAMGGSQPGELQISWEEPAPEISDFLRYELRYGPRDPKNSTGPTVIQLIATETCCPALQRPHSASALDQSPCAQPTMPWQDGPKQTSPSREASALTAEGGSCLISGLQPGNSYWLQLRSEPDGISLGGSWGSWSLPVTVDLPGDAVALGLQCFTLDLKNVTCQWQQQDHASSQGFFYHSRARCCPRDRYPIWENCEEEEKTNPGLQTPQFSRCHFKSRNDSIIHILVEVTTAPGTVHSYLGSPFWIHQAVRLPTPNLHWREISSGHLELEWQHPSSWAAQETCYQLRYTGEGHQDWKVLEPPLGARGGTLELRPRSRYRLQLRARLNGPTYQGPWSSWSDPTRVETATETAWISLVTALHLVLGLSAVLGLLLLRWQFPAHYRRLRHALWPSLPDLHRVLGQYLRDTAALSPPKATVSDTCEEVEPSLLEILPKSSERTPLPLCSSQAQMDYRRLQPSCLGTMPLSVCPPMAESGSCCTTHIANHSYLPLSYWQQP
Assay: in vitro proliferation assay using the murine BaF3 cell line transfected with human Tpo-R
Assay type: cell-based
Settings: at a concentration of 2 uM
Experimental: Compounds of the present invention were tested for potency as mimetics of TPO in an in vitro proliferation assay using the murine BaF3 cell line transfected with human Tpo-R. Survival and growth is dependent on the presence of TPO.

For O=C1NC(=S)SC1=Cc1ccc2[nH]c(-c3cccc(-c4ccc(Cl)c(Cl)c4)n3)nc2c1 [Example 1, 5-{2-[6-(3,4-dichloro-phenyl)-pyridin-2-yl]-1H-benzoimidazol-5-ylmethylene}-2-thioxo-thiozolidin-4-one], the “activation, % of control (control is the maximal response to TPO), proliferation of BaF3 cells” value was “about 20 % of control”.
